In patent publication US6780875B2, “Quinoline-4-carboxamide derivatives as NK-3 and NK-2 receptor antagonists” (SmithKline Beecham S.p.A., priority 1998, dated 2004):
Structures can show the parent of a compound that is named as a salt.

SMILES	melting point
CC[C@H](NC(=O)c1c(CN2C[C@@H](C)N[C@@H](C)C2)c(-c2ccccc2)nc2ccccc12)c1ccccc1 [Example 60, 3-((3R,5S)-3,5-Dimethyl-piperazin-1-ylmethyl)-2-phenyl-quinoline-4-carboxylic acid ((S)-1-phenyl-propyl)-amide]	114 to 120 °C
C[C@H](NC(=O)c1c(CN2CCN(CCOCCO)CC2)c(-c2ccccc2)nc2ccccc12)C1CCCCC1 [Example 20, 3-{4-[2-(2-Hydroxy-ethoxy)-ethyl]-piperazin-1-ylmethyl}-2-phenyl-quinoline-4-carboxylic acid ((S)-1-cyclohexyl-ethyl)-amide]	126 to 128 °C
C[C@H](NC(=O)c1c(CN2CCOCC2)c(-c2ccccc2)nc2ccccc12)C1CCCCC1 [Example 54, 3-Morpholin-4-ylmethyl-2-phenyl-quinoline-4-carboxylic acid ((S)-1-cyclohexyl-ethyl)-amide]	178 to 180 °C
C[C@H](NC(=O)c1c(CN2CCN(Cc3ccccc3)CC2)c(-c2ccccc2)nc2ccccc12)C1CCCCC1 (as salt: HCl)	176 to 179 °C
C[C@H](NC(=O)c1c(CN2CCN(C(=O)CN(C)C)CC2)c(-c2ccccc2)nc2ccccc12)C1CCCCC1 [Example 46, 3-[4-(2-Dimethylamino-ethanoyl)-piperazin-1-ylmethyl]-2-phenyl-quinoline-4-carboxylic acid ((S)-1-cyclohexyl-ethyl)-amide]	173 to 175 °C
CC[C@H](NC(=O)c1c(CN2CCC(N3CCN(C)CC3)CC2)c(-c2ccccc2)nc2ccccc12)c1ccccc1 [Example 62, 3-[4-(4-Methyl-piperazin-1-yl)-piperidin-1-ylmethyl]-2-phenyl-quinoline-4-carboxylic acid ((S)-1-phenyl-propyl)-amide]	85 to 100 °C

The next lines start with the values.

melting point	SMILES
188 to 195 °C	C[C@H](NC(=O)c1c(CN2CCN(CC(=O)O)CC2)c(-c2ccccc2)nc2ccccc12)C1CCCCC1 [Example 92, {4-[4-((S)-1-Cyclohexyl-ethylcarbamoyl)-2-phenyl-quinolin-3-ylmethyl]-piperazin-1-yl}-acetic acid]
139 to 144 °C (dec.)	COc1ccc2c(C(=O)N[C@@H](C)C3CCCCC3)c(CN3CCC(N4CCCCC4)CC3)c(-c3ccccc3)nc2c1 [Example 88, 3-[1,4′]Bipiperidinyl-1′-ylmethyl-7-methoxy-2-phenyl--quinoline-4-carboxylic acid ((S)-1-cyclohexyl-ethyl)-amide]
175 to 180 °C	CNC(=NC#N)N1CCN(Cc2c(-c3ccccc3)nc3ccccc3c2C(=O)N[C@@H](C)C2CCCCC2)CC1 [Example 73, 3-[4-(-1-Cyanoimino-1-methylamino-methyl)-piperazin-1-ylmethyl]-2-phenyl-quinoline-4-carboxylic acid ((S)-1-cyclohexyl-ethyl)amide]
